Results on five compounds are retold here after ChEMBL document CHEMBL1158607, “2' biaryl amides as novel and subtype selective M1 agonists. Part I: Identification, synthesis, and initial SAR” (Bioorg Med Chem Lett, 2010).

Calls of active or inactive are those of the source. No cut-off for these calls is given here. A value given as a limit tells only on which side of the number the result lay.

What is called EC50 is the midpoint of the concentration-response curve. One may read the IC50 as the concentration that gives 50% inhibition. The low end stands for greater potency, the high end for weaker potency.

Assay [1] has as its target T1, Muscarinic acetylcholine receptor M1 (Homo sapiens, UniProt P11229).
T1 sequence (P11229 whole entry): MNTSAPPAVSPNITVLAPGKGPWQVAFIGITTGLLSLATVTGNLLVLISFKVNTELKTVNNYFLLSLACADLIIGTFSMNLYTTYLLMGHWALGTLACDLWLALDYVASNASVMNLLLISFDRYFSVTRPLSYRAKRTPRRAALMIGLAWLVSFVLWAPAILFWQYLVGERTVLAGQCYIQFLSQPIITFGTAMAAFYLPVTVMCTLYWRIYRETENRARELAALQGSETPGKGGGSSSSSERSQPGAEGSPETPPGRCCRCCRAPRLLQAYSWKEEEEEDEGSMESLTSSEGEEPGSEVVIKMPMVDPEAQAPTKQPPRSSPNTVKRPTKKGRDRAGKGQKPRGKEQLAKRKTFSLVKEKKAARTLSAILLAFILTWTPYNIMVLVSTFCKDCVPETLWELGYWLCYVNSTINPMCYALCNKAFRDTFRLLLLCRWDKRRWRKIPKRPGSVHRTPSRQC
In words: Agonist activity at human muscarinic M1 receptor expressed in CHO cells assessed as effect on acetylcholine-induced intracellular calcium level by FLIPR assay. The format is functional, cell-based.

Assay [2] deals with T2, Muscarinic acetylcholine receptor M1 (Homo sapiens) (UniProt P11229).
T2 sequence (whole entry): T1 sequence (P11229 whole entry)
Briefly: Intrinsic activity at human muscarinic M1 receptor expressed in CHO cells assessed as effect on acetylcholine-induced intracellular calcium level by FLIPR assay relative to acetylcholine. The format is functional, cell-based.

The target of assay [3] is T3, Muscarinic acetylcholine receptor M5 (Homo sapiens, UniProt P08912).
T3 sequence (P08912 whole entry): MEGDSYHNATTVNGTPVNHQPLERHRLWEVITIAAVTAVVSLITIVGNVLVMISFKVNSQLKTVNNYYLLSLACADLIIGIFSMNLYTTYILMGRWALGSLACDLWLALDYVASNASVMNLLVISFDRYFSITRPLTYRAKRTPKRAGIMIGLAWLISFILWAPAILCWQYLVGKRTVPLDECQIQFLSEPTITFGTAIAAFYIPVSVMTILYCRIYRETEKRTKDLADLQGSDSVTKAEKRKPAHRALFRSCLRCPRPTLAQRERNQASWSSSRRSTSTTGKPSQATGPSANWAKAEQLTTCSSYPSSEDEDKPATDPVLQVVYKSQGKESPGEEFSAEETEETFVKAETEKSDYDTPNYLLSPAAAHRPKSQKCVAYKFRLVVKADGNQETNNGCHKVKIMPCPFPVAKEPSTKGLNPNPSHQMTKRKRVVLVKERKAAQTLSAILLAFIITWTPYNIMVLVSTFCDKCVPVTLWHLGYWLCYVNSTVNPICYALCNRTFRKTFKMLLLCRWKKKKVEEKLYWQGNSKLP
Briefly: Inhibition of human muscarinic M5 receptor expressed in CHO cells. The format is cell-based.

Assay [4] deals with T4, Muscarinic acetylcholine receptor M4 (Homo sapiens, UniProt P08173).
T4 sequence (P08173 whole entry): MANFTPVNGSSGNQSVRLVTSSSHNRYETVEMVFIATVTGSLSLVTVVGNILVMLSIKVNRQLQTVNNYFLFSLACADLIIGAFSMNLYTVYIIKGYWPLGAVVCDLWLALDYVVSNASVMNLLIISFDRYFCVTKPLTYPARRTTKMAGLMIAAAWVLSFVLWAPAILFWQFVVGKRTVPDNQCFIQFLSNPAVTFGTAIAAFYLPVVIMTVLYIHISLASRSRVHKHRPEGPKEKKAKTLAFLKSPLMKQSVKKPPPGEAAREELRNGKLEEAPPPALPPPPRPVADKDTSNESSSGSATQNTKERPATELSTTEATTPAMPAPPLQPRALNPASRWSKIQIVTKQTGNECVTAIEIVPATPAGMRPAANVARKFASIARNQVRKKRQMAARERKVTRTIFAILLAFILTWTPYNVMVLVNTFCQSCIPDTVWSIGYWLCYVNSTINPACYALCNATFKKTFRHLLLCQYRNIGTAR
Briefly: Inhibition of human muscarinic M4 receptor expressed in CHO cells. The format is cell-based.

In assay [5] the target is T5, Muscarinic acetylcholine receptor M3 (Homo sapiens, UniProt P20309). In words: Inhibition of human muscarinic M3 receptor expressed in CHO cells. The format is cell-based.
Target sequence in this assay (P20309 whole entry): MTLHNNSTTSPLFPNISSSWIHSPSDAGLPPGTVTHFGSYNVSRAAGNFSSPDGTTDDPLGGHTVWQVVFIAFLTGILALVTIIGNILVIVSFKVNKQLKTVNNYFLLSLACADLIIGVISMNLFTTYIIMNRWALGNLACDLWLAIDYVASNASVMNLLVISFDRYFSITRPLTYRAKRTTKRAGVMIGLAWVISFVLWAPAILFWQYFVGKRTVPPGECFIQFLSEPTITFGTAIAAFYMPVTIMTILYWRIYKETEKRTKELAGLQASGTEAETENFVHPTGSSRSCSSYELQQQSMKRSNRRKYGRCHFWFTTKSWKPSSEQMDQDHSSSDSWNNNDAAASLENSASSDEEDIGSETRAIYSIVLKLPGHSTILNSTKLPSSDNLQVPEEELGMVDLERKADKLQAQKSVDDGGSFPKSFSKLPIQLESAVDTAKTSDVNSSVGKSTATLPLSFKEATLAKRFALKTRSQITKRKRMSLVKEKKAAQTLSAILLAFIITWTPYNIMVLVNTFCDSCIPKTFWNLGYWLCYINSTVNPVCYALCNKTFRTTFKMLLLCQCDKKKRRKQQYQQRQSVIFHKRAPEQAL
The target of assay [6] is T6, Muscarinic acetylcholine receptor M2 (Homo sapiens) (UniProt P08172).
T6 sequence (whole entry): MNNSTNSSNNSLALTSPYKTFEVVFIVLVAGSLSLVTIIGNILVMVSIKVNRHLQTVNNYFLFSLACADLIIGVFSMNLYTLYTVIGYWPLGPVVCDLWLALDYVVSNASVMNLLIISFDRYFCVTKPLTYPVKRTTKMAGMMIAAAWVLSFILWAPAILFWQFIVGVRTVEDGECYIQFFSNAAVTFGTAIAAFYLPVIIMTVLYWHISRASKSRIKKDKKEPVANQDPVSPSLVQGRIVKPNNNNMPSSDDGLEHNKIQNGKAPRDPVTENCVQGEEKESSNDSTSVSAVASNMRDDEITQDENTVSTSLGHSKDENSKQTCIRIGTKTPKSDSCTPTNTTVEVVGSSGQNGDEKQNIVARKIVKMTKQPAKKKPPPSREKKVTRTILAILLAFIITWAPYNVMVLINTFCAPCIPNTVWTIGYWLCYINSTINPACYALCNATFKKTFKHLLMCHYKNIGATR
Briefly: Agonist activity at human muscarinic M2 receptor expressed in CHO cells assessed as effect on acetylcholine-induced intracellular calcium level by FLIPR assay. The format is functional, cell-based. A general note: A change in cytosolic calcium serves as a functional read-out for many receptors and channels.

For assay [7], the target named is T7, Muscarinic acetylcholine receptor M5 (Homo sapiens) (UniProt P08912).
T7 sequence (whole entry): T3 sequence (P08912 whole entry)
In words: Agonist activity at human muscarinic M5 receptor expressed in CHO cells assessed as effect on acetylcholine-induced intracellular calcium level by FLIPR assay. The format is functional, cell-based.

Assay [8] addresses T8, Muscarinic acetylcholine receptor M2 (Homo sapiens, UniProt P08172).
T8 sequence (P08172 whole entry): T6 sequence (whole entry)
In words: Inhibition of human muscarinic M2 receptor expressed in CHO cells. The format is cell-based.

Assay [9] deals with T5, Muscarinic acetylcholine receptor M3. Briefly: Agonist activity at human muscarinic M3 receptor expressed in CHO cells assessed as effect on acetylcholine-induced intracellular calcium level by FLIPR assay. The format is functional, cell-based.
Target sequence in this assay (P20309 whole entry, looked up): as the sequence (P20309 whole entry) above
Assay [10] deals with T9, Muscarinic acetylcholine receptor M4 (Homo sapiens) (UniProt P08173).
T9 sequence (whole entry): T4 sequence (P08173 whole entry)
Briefly: Agonist activity at human muscarinic M4 receptor expressed in CHO cells assessed as effect on acetylcholine-induced intracellular calcium level by FLIPR assay. The class given is functional, cell-based.

Assay [11] is filed under the species Homo sapiens. In words: Selectivity ratio of EC50 for human muscarinic M5 receptor to EC50 for human muscarinic M1 receptor.
Assay [12] concerns the target Muscarinic acetylcholine receptor M1 and M3 (Homo sapiens) (UniProt P20309+P11229). Briefly: Selectivity ratio of EC50 for human muscarinic M3 receptor to EC50 for human muscarinic M1 receptor.
For assay [13], the species on record is Homo sapiens. Briefly: Selectivity ratio of EC50 for human muscarinic M4 receptor to EC50 for human muscarinic M1 receptor.
Assay [14] addresses Muscarinic acetylcholine receptors; M1 & M2 (Homo sapiens) (UniProt P11229+P08172). Briefly: Selectivity ratio of EC50 for human muscarinic M2 receptor to EC50 for human muscarinic M1 receptor.

Muscarinic acetylcholine receptor M1 and M3 (Homo sapiens), sequence (P20309 whole entry, looked up, one chain of several): as the sequence (P20309 whole entry) above

As for `O=C(NCC1CCNCC1)c1ccccc1-c1cccc(Cl)c1`, the half-maximal effective concentration (EC50) in assay [1] is 63.1 nM. In addition, the Intrinsic activity in [2] was determined as 86%. Besides, the IC50 in [3] was greater than 10000 nM; in assay [4] it was 5010 nM; in [5], 3980 nM; in assay [8], 7940 nM. Also, the result in assay [6], in assay [7], in [9] and in assay [10] was inactive.
For `Cc1ccc(-c2ccccc2C(=O)NCC2CCNCC2)cc1Cl`, the EC50 in assay [1] was 12.6 nM. In assay [2], the Intrinsic activity stood at 91%. The IC50 was 794 nM in [3], 398 nM in assay [4], 251 nM in assay [5] and 398 nM in assay [8]. The result in assay [6], in assay [7], in [9] and in assay [10] was inactive.
`O=C(NCC1CCNCC1)c1ccccc1-c1cc(Cl)ccc1F`: the Ratio EC50 (in the assay filed under Homo sapiens [11]; in assay [12]; in the assay listed under Homo sapiens [13]; in assay [14]) was 100 each time. In [1], the EC50 was 10 nM. In addition, the Intrinsic activity in assay [2] came out at 111%. Further, the IC50 was 5010 nM in assay [3], 1580 nM in [4], 1000 nM in assay [5] and 2000 nM in [8].
For `CC1CNCCC1CNC(=O)c1ccccc1-c1cccc(Cl)c1` (centres undefined), the Ratio EC50 (in the assay listed under Homo sapiens [11]; in assay [12]; in the assay listed under Homo sapiens [13]; in assay [14]) was 100 in each case. In assay [1], the EC50 is 20 nM. For the same compound, the Intrinsic activity in assay [2] was determined as 99%. For the same compound, the IC50 in assay [3] is greater than 10000 nM; in [4], 3160 nM; in assay [5], 1260 nM; in assay [8], 3980 nM. For the same compound, the result in [6], in assay [7], in assay [9] and in assay [10] was inactive.
For the compound `O=C(NCC1CCNCC1)c1ccccc1-c1nc(Cl)cs1`, the Intrinsic activity in assay [2] was found to be 84%. Further, the result in assay [6], in assay [7], in [9] and in assay [10] was inactive.
